In patent US20250049970A1, “DLL3 TARGETING PEPTIDES AND CONSTRUCTS THEREOF” (MARIANA ONCOLOGY INC., priority 2023, published 2025):
*1 amine or outer side, *2 acyl side, *3 side chain or, on linkers, in order; H or OH if unused. Where a SMILES comes first, the peptide text is derived from it. Bridges are numbered along the chain shown (N, C = ends). [ ]: non-standard residue; d: D form. Trp(5-OH) = N[C@@H](Cc1c[nH]c2ccc(O)cc12)C(=O)O; Trp(7-aza) = N[C@@H](Cc1c[nH]c2ncccc12)C(=O)O; 1Nal = N[C@@H](Cc1cccc2ccccc12)C(=O)O; 2Nal = N[C@@H](Cc1ccc2ccccc2c1)C(=O)O; CH2 = C([*:1])[*:2]

biological target: T1, DLL3 (Homo sapiens, UniProt Q9NYJ7); assay: SPR KD, biotinylated human DLL3 on streptavidin chip (Table 8); parameters: biotin (biotinylated); conditions: biotinylated human DLL3 on streptavidin sensor chip, 25° C., 1:1 binding model; read-out: SPR KD
T1 sequence (Q9NYJ7 27-618): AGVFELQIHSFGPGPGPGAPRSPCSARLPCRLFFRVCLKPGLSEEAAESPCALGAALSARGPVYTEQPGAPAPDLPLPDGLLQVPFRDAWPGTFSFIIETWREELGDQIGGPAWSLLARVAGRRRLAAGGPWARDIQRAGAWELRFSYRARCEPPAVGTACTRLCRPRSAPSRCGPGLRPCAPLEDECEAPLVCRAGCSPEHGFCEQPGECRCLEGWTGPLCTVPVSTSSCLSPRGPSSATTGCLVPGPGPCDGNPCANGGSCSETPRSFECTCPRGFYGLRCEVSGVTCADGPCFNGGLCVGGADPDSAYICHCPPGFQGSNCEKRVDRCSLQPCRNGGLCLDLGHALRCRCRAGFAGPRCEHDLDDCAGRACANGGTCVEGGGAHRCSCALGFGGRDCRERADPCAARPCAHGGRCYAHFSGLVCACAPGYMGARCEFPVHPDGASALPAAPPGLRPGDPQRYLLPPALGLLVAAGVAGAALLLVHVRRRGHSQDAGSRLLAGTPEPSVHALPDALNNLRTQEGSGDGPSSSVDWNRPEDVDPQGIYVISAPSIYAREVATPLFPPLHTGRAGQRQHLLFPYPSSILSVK
Description: Biotinylated target ligand human DLL3 was immobilized on a streptavidin sensor chip. A reference surface was set up for nonspecific binding and refractive index changes. […] Sensorgram curves were fitted with 1:1 binding model, and affinity and kinetic parameters were obtained using Biacore Insight evaluation 4.0. software.

Row | Compound | Kd
1 | CC[C@H](C)[C@H](NC(=O)[C@@H](NC(=O)[C@H](Cc1c[nH]c2ccccc12)NC(=O)[C@H](CCSC)NC(C)=O)[C@@H](C)O)C(=O)N[C@H]1CSSC[C@@H](C(=O)N[C@@H](Cc2c[nH]c3ccccc23)C(=O)N[C@H](C)C(N)=O)NC(=O)[C@H](CC(=O)O)NC(=O)[C@H](Cc2cnc[nH]2)NC(=O)[C@H](Cc2c[nH]c3ccccc23)NC(=O)[C@H](CC(N)=O)NC(=O)[C@H](CC(N)=O)NC1=O [compound 10, Ac-M-W-T-I-C(3)-N-N-W-H-D-C(3)-W-(D-Ala)-CONH2] (Ac-MWTICNNWHDCW[dA]-NH2; disulfide 5-11) | 100 to 300 nM
2 | CC[C@H](C)[C@H](NC(=O)[C@@H](NC(=O)[C@H](Cc1c[nH]c2ccccc12)NC(=O)[C@H](C)NC(C)=O)[C@@H](C)O)C(=O)N[C@H]1CSSC[C@@H](C(=O)N[C@@H](Cc2c[nH]c3ccccc23)C(=O)N2CCC[C@H]2C(N)=O)NC(=O)[C@H](CC(=O)O)NC(=O)[C@H](Cc2cnc[nH]2)NC(=O)[C@H](Cc2c[nH]c3ccccc23)NC(=O)[C@H](CC(N)=O)NC(=O)[C@H](CC(N)=O)NC1=O [compound 11, Ac-(L-Ala)-W-T-I-C(3)-N-N-W-H-D-C(3)-W-P-CONH2] (Ac-AWTICNNWHDCWP-NH2; disulfide 5-11) | 1 to 10 nM
3 | CC[C@H](C)[C@H](NC(=O)[C@H](C)NC(=O)[C@H](Cc1c[nH]c2ccccc12)NC(=O)[C@H](CCSC)NC(C)=O)C(=O)N[C@H]1CSSC[C@@H](C(=O)N[C@@H](Cc2c[nH]c3ccccc23)C(=O)N2CCC[C@H]2C(N)=O)NC(=O)[C@H](CC(=O)O)NC(=O)[C@H](Cc2cnc[nH]2)NC(=O)[C@H](Cc2c[nH]c3ccccc23)NC(=O)[C@H](CC(N)=O)NC(=O)[C@H](CC(N)=O)NC1=O [compound 13, Ac-M-W-(L-Ala)-I-C(3)-N-N-W-H-D-C(3)-W-P-CONH2] (Ac-MWAICNNWHDCWP-NH2; disulfide 5-11) | 10 to 100 nM
4 | CSCC[C@H](NC(C)=O)C(=O)N[C@@H](Cc1c[nH]c2ccccc12)C(=O)N[C@H](C(=O)N[C@@H](C)C(=O)N[C@H]1CSSC[C@@H](C(=O)N[C@@H](Cc2c[nH]c3ccccc23)C(=O)N2CCC[C@H]2C(N)=O)NC(=O)[C@H](CC(=O)O)NC(=O)[C@H](Cc2c[nH]cn2)NC(=O)[C@H](Cc2c[nH]c3ccccc23)NC(=O)[C@H](CC(N)=O)NC(=O)[C@H](CC(N)=O)NC1=O)[C@@H](C)O [compound 14, Ac-M-W-T-(L-Ala)-C(3)-N-N-W-H-D-C(3)-W-P-CONH2] (Ac-MWTACNNWHDCWP-NH2; disulfide 5-11) | 10 to 100 nM
5 | CC[C@H](C)[C@H](NC(=O)[C@@H](NC(=O)[C@H](Cc1c[nH]c2ccccc12)NC(=O)[C@H](CCSC)NC(C)=O)[C@@H](C)O)C(=O)N[C@H]1CSSC[C@@H](C(=O)N[C@@H](Cc2c[nH]c3ccccc23)C(=O)N2CCC[C@H]2C(N)=O)NC(=O)[C@H](CC(=O)O)NC(=O)[C@H](Cc2cnc[nH]2)NC(=O)[C@H](Cc2c[nH]c3ccccc23)NC(=O)[C@H](CC(N)=O)NC(=O)[C@H](C)NC1=O [compound 15, Ac-M-W-T-I-C(3)-(L-Ala)-N-W-H-D-C(3)-W-P-CONH2] (Ac-MWTICANWHDCWP-NH2; disulfide 5-11) | 1 to 10 nM
6 | CC[C@H](C)[C@H](NC(=O)[C@@H](NC(=O)[C@H](Cc1c[nH]c2ncccc12)NC(C)=O)[C@@H](C)O)C(=O)N[C@H]1CSSC[C@@H](C(=O)N[C@@H](Cc2c[nH]c3ccccc23)C(=O)N2CCC[C@H]2C(N)=O)NC(=O)[C@H](CC(=O)O)NC(=O)[C@H](Cc2cnc[nH]2)NC(=O)[C@H](Cc2c[nH]c3ccccc23)NC(=O)[C@H](CC(N)=O)NC(=O)[C@H](CC(N)=O)NC1=O [compound 24, Ac-(7Aza-W)-T-I-C(3)-N-N-W-H-D-C(3)-W-P-CONH2] (Ac-[Trp(7-aza)]TICNNWHDCWP-NH2; disulfide 4-10) | 10 to 100 nM
7 | CC[C@H](C)[C@H](NC(=O)[C@@H](NC(=O)[C@H](Cc1cccc2ccccc12)NC(C)=O)[C@@H](C)O)C(=O)N[C@H]1CSSC[C@@H](C(=O)N[C@@H](Cc2c[nH]c3ccccc23)C(=O)N2CCC[C@H]2C(N)=O)NC(=O)[C@H](CC(=O)O)NC(=O)[C@H](Cc2cnc[nH]2)NC(=O)[C@H](Cc2c[nH]c3ccccc23)NC(=O)[C@H](CC(N)=O)NC(=O)[C@H](CC(N)=O)NC1=O [compound 25, Ac-(1Nal)-T-I-C(3)-N-N-W-H-D-C(3)-W-P-CONH2] (Ac-[1Nal]TICNNWHDCWP-NH2; disulfide 4-10) | 10 to 100 nM
8 | CC[C@H](C)[C@H](NC(=O)[C@@H](NC(=O)[C@H](Cc1ccc2ccccc2c1)NC(C)=O)[C@@H](C)O)C(=O)N[C@H]1CSSC[C@@H](C(=O)N[C@@H](Cc2c[nH]c3ccccc23)C(=O)N2CCC[C@H]2C(N)=O)NC(=O)[C@H](CC(=O)O)NC(=O)[C@H](Cc2cnc[nH]2)NC(=O)[C@H](Cc2c[nH]c3ccccc23)NC(=O)[C@H](CC(N)=O)NC(=O)[C@H](CC(N)=O)NC1=O [compound 26, Ac-(2Nal)-T-I-C(3)-N-N-W-H-D-C(3)-W-P-CONH2] (Ac-[2Nal]TICNNWHDCWP-NH2; disulfide 4-10) | 10 to 100 nM
9 | CC[C@H](C)[C@H](NC(=O)[C@@H](NC(=O)[C@H](Cc1c[nH]c2ccc(O)cc12)NC(C)=O)[C@@H](C)O)C(=O)N[C@H]1CSSC[C@@H](C(=O)N[C@@H](Cc2c[nH]c3ccccc23)C(=O)N2CCC[C@H]2C(N)=O)NC(=O)[C@H](CC(=O)O)NC(=O)[C@H](Cc2c[nH]cn2)NC(=O)[C@H](Cc2c[nH]c3ccccc23)NC(=O)[C@H](CC(N)=O)NC(=O)[C@H](CC(N)=O)NC1=O [compound 27, Ac-(5OH-W)-T-I-C(3)-N-N-W-H-D-C(3)-W-P-CONH2] (Ac-[Trp(5-OH)]TICNNWHDCWP-NH2; disulfide 4-10) | 10 to 100 nM
10 | CC[C@H](C)[C@H](NC(=O)[C@@H](NC(=O)[C@H](Cc1c[nH]c2ccccc12)NC(=O)[C@H](CCSC)NC(C)=O)[C@@H](C)O)C(=O)N[C@H]1CSCSC[C@@H](C(=O)N[C@@H](Cc2c[nH]c3ccccc23)C(=O)N2CCC[C@H]2C(N)=O)NC(=O)[C@H](CC(=O)O)NC(=O)[C@H](Cc2cnc[nH]2)NC(=O)[C@H](Cc2c[nH]c3ccccc23)NC(=O)[C@H](CC(N)=O)NC(=O)[C@H](CC(N)=O)NC1=O [compound 32, Ac-M-W-T-I-C(1)-N-N-W-H-D-C(1)-W-P-CONH2] (Ac-MWTICNNWHDCWP-NH2; linker 5-11 via CH2) | 10 to 100 nM
11 | CC[C@H](C)[C@H](NC(=O)[C@@H](NC(=O)[C@H](Cc1c[nH]c2ccccc12)NC(C)=O)[C@@H](C)O)C(=O)N[C@H]1CSSC[C@@H](C(=O)N[C@@H](Cc2c[nH]c3ccccc23)C(=O)N2CCC[C@H]2C(N)=O)NC(=O)[C@H](CC(=O)O)NC(=O)[C@H](Cc2c[nH]cn2)NC(=O)[C@H](Cc2c[nH]c3ncccc23)NC(=O)[C@H](CC(N)=O)NC(=O)[C@H](CC(N)=O)NC1=O [compound 33, Ac-W-T-I-C(3)-N-N-(7Aza-W)-H-D-C(3)-W-P-CONH2] (Ac-WTICNN[Trp(7-aza)]HDCWP-NH2; disulfide 4-10) | 10 to 100 nM
12 | CC[C@H](C)[C@H](NC(=O)[C@@H](NC(=O)[C@H](Cc1c[nH]c2ccccc12)NC(=O)[C@H](CCSC)NC(C)=O)[C@@H](C)O)C(=O)N[C@H]1CSSC[C@@H](C(=O)N[C@@H](Cc2c[nH]c3ccccc23)C(=O)N2CCC[C@H]2C(N)=O)NC(=O)[C@H](CC(=O)O)NC(=O)[C@H](C)NC(=O)[C@H](Cc2c[nH]c3ccccc23)NC(=O)[C@H](CC(N)=O)NC(=O)[C@H](CC(N)=O)NC1=O [compound 36, Ac-M-W-T-I-C(3)-N-N-W-(L-Ala)-D-C(3)-W-P-CONH2] (Ac-MWTICNNWADCWP-NH2; disulfide 5-11) | 10 to 100 nM
13 | CC[C@H](C)[C@H](NC(=O)[C@@H](NC(=O)[C@H](Cc1c[nH]c2ccccc12)NC(=O)[C@H](CCSC)NC(C)=O)[C@@H](C)O)C(=O)N[C@H]1CSSC[C@@H](C(=O)N[C@@H](Cc2c[nH]c3ccccc23)C(=O)N2CCC[C@H]2C(N)=O)NC(=O)[C@H](C)NC(=O)[C@H](Cc2cnc[nH]2)NC(=O)[C@H](Cc2c[nH]c3ccccc23)NC(=O)[C@H](CC(N)=O)NC(=O)[C@H](CC(N)=O)NC1=O [compound 37, Ac-M-W-T-I-C(3)-N-N-W-H-(L-Ala)-C(3)-W-P-CONH2] (Ac-MWTICNNWHACWP-NH2; disulfide 5-11) | 10 to 100 nM
14 | CC[C@H](C)[C@H](NC(=O)[C@@H](NC(=O)[C@H](Cc1c[nH]c2ccccc12)NC(=O)[C@H](CCSC)NC(C)=O)[C@@H](C)O)C(=O)N[C@H]1CSSC[C@@H](C(=O)N[C@@H](Cc2c[nH]c3ccccc23)C(=O)N2CCC[C@H]2C(N)=O)NC(=O)[C@H](CC(=O)O)NC(=O)[C@H](Cc2cnc[nH]2)NC(=O)[C@H](Cc2c[nH]c3ccccc23)NC(=O)[C@H](C)NC(=O)[C@H](CC(N)=O)NC1=O [compound 38, Ac-M-W-T-I-C(3)-N-(L-Ala)-W-H-D-C(3)-W-P-CONH2] (Ac-MWTICNAWHDCWP-NH2; disulfide 5-11) | 10 to 100 nM
15 | CC[C@H](C)[C@H](NC(=O)[C@@H](NC(=O)[C@H](Cc1c[nH]c2ccccc12)NC(=O)[C@H](CCSC)NC(C)=O)[C@@H](C)O)C(=O)N[C@H]1CSSC[C@@H](C(=O)N[C@@H](Cc2c[nH]c3ccccc23)C(=O)N2CCC[C@H]2C(N)=O)NC(=O)[C@H](CC(=O)O)NC(=O)[C@H](Cc2cnc[nH]2)NC(=O)[C@H](Cc2c[nH]c3ccccc23)NC(=O)[C@@H](C)NC(=O)[C@H](CC(N)=O)NC1=O [compound 39, Ac-M-W-T-I-C(3)-N-(D-Ala)-W-H-D-C(3)-W-P-CONH2] (Ac-MWTICN[dA]WHDCWP-NH2; disulfide 5-11) | 10 to 100 nM
